Reference: patent US20220194960A1, “WEE1 INHIBITOR AND PREPARATION AND USE THEREOF” (SHOUYAO HOLDINGS (BEIJING) CO., LTD., priority 2019, published 2022)

Key:
[1] = system: Human non-small cell lung cancer cells NCI-H1299; assay: NCI-H1299 cell proliferation inhibition (CellTiter-Glo); format: cell-based; conditions: cultured 3 days, table head NCI-H1975, method NCI-H1299
Experimental: 2. Determination of Cell Proliferation Activity of Compounds:
NCI-H1299 cell proliferation inhibition screening method was established using CellTiter-fib detection reagent from Promega.
Human non-small cell lung cancer cells NCI-H1299 were cultured in 25 cm^2 or 75 cm^2 plastic tissue culture flasks (Corning) filled with DMEM (Gibco) medium supplemented with 10% fetal bovine serum (Hyclone) under 37° C., 95% air, and 5% CO2, and subcultured 2-3 times a week.
Cells were seeded at 1000 cells/well in a 96-well cell culture plate (Corning), 195 μL/well, and cultured under 37° C., 95% air, and 5% CO2. The next day test compound was added: 10 mM compounds (dissolved in DMSO) were subjected to 3-fold gradient dilution in DMSO, 2 μL of diluent from each concentration was added to 48 μL of serum-fret medium, and finally 5 μL of the diluted compound was added to the plate seeded with cells. The final concentration of DMSO in the cell culture was 0.1% and the foul concentration of the test compound was 0.3 nM-10 μM. The cells were cultured at 37° C. for 3 days.

WEE1 kinase = molecular target: T1, WEE1 kinase (Homo sapiens, UniProt P30291); assay: WEE1 kinase binding assay (LanthaScreen EU); conditions: WEE1 kinase 20 nM, Kinase Tracer 178 100 nM, 23° C. for 60 min, read-out: WEEI (IC50)
T1 construct: purchased Carna bioscience
T1 sequence (P30291 whole entry): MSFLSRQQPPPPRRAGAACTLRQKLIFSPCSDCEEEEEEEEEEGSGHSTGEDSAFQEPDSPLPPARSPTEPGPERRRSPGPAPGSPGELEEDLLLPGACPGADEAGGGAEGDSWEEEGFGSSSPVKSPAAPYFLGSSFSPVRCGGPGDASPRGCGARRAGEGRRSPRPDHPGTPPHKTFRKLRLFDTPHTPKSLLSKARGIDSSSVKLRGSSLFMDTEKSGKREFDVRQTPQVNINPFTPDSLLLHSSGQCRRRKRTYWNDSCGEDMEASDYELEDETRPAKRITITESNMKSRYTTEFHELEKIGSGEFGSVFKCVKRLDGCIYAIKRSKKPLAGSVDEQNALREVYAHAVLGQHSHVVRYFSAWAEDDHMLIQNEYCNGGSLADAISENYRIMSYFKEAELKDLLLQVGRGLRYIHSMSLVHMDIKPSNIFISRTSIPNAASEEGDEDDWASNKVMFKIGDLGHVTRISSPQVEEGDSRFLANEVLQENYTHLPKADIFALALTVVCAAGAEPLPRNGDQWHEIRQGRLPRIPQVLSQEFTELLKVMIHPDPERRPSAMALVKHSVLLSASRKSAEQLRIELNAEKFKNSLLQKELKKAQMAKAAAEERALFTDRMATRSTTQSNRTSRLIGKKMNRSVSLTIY
Experimental: 1. Assay for WEE1 Kinase Inhibitory Activity (IC50) on Compounds
The WEE1 kinase binding assay was established and optimized with LanthaScreen EU for the determination of the activity of compounds. 10 mM compounds were subjected to ten-fold gradient dilution in 100% DMSO (6 concentrations in total), 5 μL of diluent from each concentration was added to 45 μL of reaction buffer (50 mM HEPES (4-hydroxyethylpiperazine ethanesulfonic acid), pH 7.5, 10 mM MgCl2 (magnesium chloride), 1 mM EGTA (ethylene glycol diethyl ether diamine tetraacetic acid), 0.01% Brij-35 (polyoxyethylene lauryl ether)) for blending. On this basis, 2 μL diluent from each concentration was added to 48 μL of reaction buffer for blending as a 4*compound (final concentrations of 1000, 100, 10, 1, 0.1, 0 nM) for later use. Reaction buffer was used to formulate 4*WEE1 kinase (purchased from Carna bioscience, a final concentration of 20 nM), 4*LanthaScreen EU-anti-GST Antibody (purchased from Invitrogen, PV5594, a fuel concentration of 2 nM), and 4*Kinase Tracer 178 (purchased from Invitrogen, PV5593, a final concentration of 100 nM). 2.5 μL of 4*compound was added to a 384-well plate (OptiPlate-384, purchased from PerkinElmer), followed by adding 2.5 μL of 4*WEE1 kinase, standing for 5 min at room temperature. Then 2.5 μL of 4*LanthaScreen EU-anti-GST Antibody was added followed by 2.5 μL of 4*Kinase Tracer 178. The reaction was started by centrifugation (a total reaction volume of 10 μL). The 384-well plate was wrapped with tin foil paper and placed in an incubator at 23° C. for 60 min. Fluorescence values (excitation at 320 nm, detecting emitted light at 665 nm and 615 nm, and a ratio of the two as enzyme activity) were read on Envision (purchased from PerkinElmer). The enzyme activity of each compound was measured at 6 concentrations, and the IC50 value of the compound was calculated using GraFit6.0 software (Erithacus Software).
The aforementioned “*” refers to multiplying, representing multiples.

Structure (SMILES)	IC50 ([1]; Homo sapiens, 72 h)	IC50 (WEE1 kinase)	IC50 [1]
CN1CCN(C2CCN(c3ccc(Nc4ncc5cc(C6CC6)n(-c6cccc(N=S(C)(C)=O)n6)c5n4)cc3F)CC2)CC1 [Example 48, ((6-(2-((3-fluoro-4-(4-(4-methylpiperazin-1-yl)piperidin-1-yl)phenyl)amino)-6-cyclopropyl-7H-pyrrolo[2,3-d]pyrimidin-7-yl)pyridin-2-yl)imino)dimethyl-λ^6-sulfanone]	0.042 µM	0.0008 µM	–
Cc1cc(Nc2ncc3cc(C4CC4)n(-c4cccc(N=S(C)(C)=O)n4)c3n2)ccc1N1CCC(N2CCN(C)CC2)CC1 [Example 52, ((6-(2-((3-methyl-4-(4-(4-methylpiperazin-1-yl)piperidin-1-yl)phenyl)amino)-6-cyclopropyl-7H-pyrrolo[2,3-d]pyrimidin-7-yl)pyridin-2-yl)imino)dimethyl-λ^6-sulfanone]	0.056 µM	0.00063 µM	–
CN1[C@@H]2CC[C@H]1CN(c1ccc(Nc3ncc4cc(C5CC5)n(-c5cccc(N=S(C)(C)=O)n5)c4n3)cc1)C2 [Example 81, ((6-(6-cyclopropyl-2-((4-((1R,5S)-8-methyl-3,8-diazabicyclo[3.2.1]octan-3-yl)phenyl)amino)-7H-pyrrolo[2,3-d]pyrimidin-7-yl)pyridin-2-yl)imino)dimethyl-λ^6-sulfanone]	0.038 µM	0.00033 µM	–
CN1[C@@H]2CC[C@H]1CN(c1ccc(Nc3ncc4c(F)c(C5CC5)n(-c5cccc(N=S(C)(C)=O)n5)c4n3)cc1)C2 [Example 82, ((6-(6-cyclopropyl-5-fluoro-2-((4-((1R,5S)-8-methyl-3,8-diazabicyclo[3.2.1]octan-3-yl)phenyl)amino)-7H-pyrrolo[2,3-d]pyrimidin-7-yl)pyridin-2-yl)imino)dimethyl-Ab-sulfanone]	0.064 µM	0.00058 µM	–
CN1CC2(CCN(c3ccc(Nc4ncc5cc(C6CC6)n(-c6cccc(N=S(C)(C)=O)n6)c5n4)cc3)CC2)C1 [Example 85, ((6-(6-cyclopropyl-2-((4-(2-methyl-2,7-diazaspiro[3.5]nonan-7-yl)phenyl)amino)-7H-pyrrolo[2,3-d]pyrimidin-7-yl)pyridin-2-yl)imino)dimethyl-λ^6-sulfanone]	0.079 µM	0.00085 µM	–
CN1CC2(CCN(c3ccc(Nc4ncc5c(F)c(C6CC6)n(-c6cccc(N=S(C)(C)=O)n6)c5n4)cc3)CC2)C1 [Example 86, ((6-(6-cyclopropyl-5-fluoro-2-((4-(2-methyl-2,7-diazaspiro[3.5]nonan-7-yl)phenyl)amino)-7H-pyrrolo[2,3-d]pyrimidin-7-yl)pyridin-2-yl)imino)dimethyl-λ^6-sulfanone]	0.06 µM	0.00054 µM	–
COc1cc(Nc2ncc3cc(C4CC4)n(-c4cccc(N=S(C)(C)=O)n4)c3n2)ccc1N1CCC(N2CCN(C)CC2)CC1 [Example 87, ((6-(6-cyclopropyl-2-((3-methoxy-4-(4-(4-methylpiperazin-1-yl)piperidin-1-yl)phenyl)amino)-7H-pyrrolo[2,3-d]pyrimidin-7-yl)pyridin-2-yl)imino)dimethyl-λ^6-sulfanone]	0.09 µM	0.00098 µM	–
CC1(O)CN(N2CCN(c3ccc(Nc4ncc5cc(C6CC6)n(-c6cccc(N=S(C)(C)=O)n6)c5n4)cc3)CC2)C1 [Example 98, ((6-(6-cyclopropyl-2-((4-(4-(3-hydroxy-3-methylazetidin-1-yl)piperazin-1-yl)phenyl)-amino)-7H-pyrrolo[2,3-d]pyrimidin-7-yl)pyridin-2-yl)imino)dimethyl-λ^6-sulfanone]	–	0.00079 µM	0.084 µM
CS(C)(=O)=Nc1cccc(-n2c(C3CC3)cc3cnc(Nc4ccc(N5CC6CCC(C5)N6)c(F)c4)nc32)n1 [Example 101, ((6-(2-((4-(3,8-diazabicyclo[3.2.1]octan-3-yl)-3-fluorophenyl)amino)-6-cyclopropyl-7H-pyrrolo[2,3-d]pyrimidin-7-yl)pyridin-2-yl)imino)dimethyl-λ^6-sulfanone]	0.066 µM	0.0007 µM	–
CN(C)CCN1CCN(c2ccc(Nc3ncc4cc(C5CC5)n(-c5cccc(N=S(C)(C)=O)n5)c4n3)cc2)CC1 [Example 108]	0.07 µM	0.00061 µM	–
CCCc1cc2cnc(Nc3ccc(N4CCN(C)CC4)cn3)nc2n1-c1cccc(N=S(C)(C)=O)n1 [Example 110, ((6-(6-propyl-2-((5-(4-methylpiperazin-1-yl)pyridin-2-yl)amino)-7H-pyrrolo[2,3-d]pyrimidin-7-yl)pyridin-2-yl)imino)dimethyl-λ^6-sulfanone]	–	0.00069 µM	0.088 µM
CCCc1cc2cnc(Nc3ccc(N4CCC5(CCN(C)CC5)CC4)cc3)nc2n1-c1cccc(N=S(C)(C)=O)n1 [Example 123, ((6-(6-propyl-2-((4-(9-methyl-3,9-diazaspiro[5.5]undecan-3-yl)phenyl)amino)-7H-pyrrolo[2,3-d]pyrimidin-7-yl)pyridin-2-yl)imino)dimethyl-λ^6-sulfanone]	–	0.0003 µM	0.044 µM
CN1CCC2(CC1)CCN(c1ccc(Nc3ncc4c(F)c(C5CC5)n(-c5cccc(N=S(C)(C)=O)n5)c4n3)cc1)CC2 [Example 126, ((6-(6-cyclopropyl-5-fluoro-2-((4-(9-methyl-3,9-diazaspiro(5.5)undecan-3-yl)phenyl)amino)-7H-pyrrolo[2,3-d]pyrimidin-7-yl)pyridin-2-yl)imino)dimethyl-λ^6-sulfanone]	0.053 µM	0.00048 µM	–
COC(=O)CN1CCN(c2ccc(Nc3ncc4cc(C5CC5)n(-c5cccc(N=S(C)(C)=O)n5)c4n3)cc2)CC1 [Example 127]	0.07 µM	0.00066 µM	–
C=C(C)c1cc2cnc(Nc3ccc(N4CCN(C)CC4)cc3)nc2n1-c1cccc(N=S(C)(C)=O)n1 [Example 135, dimethyl((6-(2-((4-(4-methylpiperazin-1-yl)phenyl)amino)-6-(prop-1-en-2-yl)-7H-pyrrolo[2,3-d]pyrimidin-7-yl)pyridin-2-yl)imino)-λ^6-sulfanone]	0.074 µM	0.00068 µM	–
CCCc1cc2cnc(Nc3ccc(N4CCC(N5CCN(C)CC5)CC4)cc3)nc2n1-c1cccc(N=S(C)(C)=O)n1 [Example 136, dimethyl((6-(2-((4-(4-(4-methylpiperazin-1-yl)piperidin-1-yl)phenyl)amino)-6-propyl-7H-pyrrolo[2,3-d]pyrimidin-7-yl)pyridin-2-yl)imino)-λ^6-sulfanone]	0.087 µM	0.0009 µM	–
Cc1cc2cnc(Nc3ccc(N4CCC5(CCN(C)CC5)CC4)cc3)nc2n1-c1cccc(N=S(C)(C)=O)n1 [Example 139, ((6-(6-methyl-2-((4-(9-methyl-3,9-diazaspiro[5.5]undecan-3-yl)phenyl)amino)-7H-pyrrolo[2,3-d]pyrimidin-7-yl)pyridin-2-yl)imino)dimethyl-λ^6-sulfanone]	–	0.00069 µM	0.064 µM
Cc1cc2cnc(Nc3ccc(N4CCC5(CCN(C)CC5)CC4)cc3)nc2n1-c1cccc(C(C)(C)O)n1 [Example 147, 2-(6-(6-methyl-2-((4-(9-methyl-3,9-diazaspiro[5.5]undecan-3-yl)phenyl)amino)-7H-pyrrolo[2,3-d]pyrimidin-7-yl)pyridin 2-yl)propan-2-ol]	0.085 µM	0.00091 µM	–
Cc1cc2cnc(Nc3ccc(N4CCC(N5CCN(C)CC5)CC4)cc3)nc2n1-c1cccc(N=S(C)(C)=O)n1 [Example 150]	0.032 µM	0.00022 µM	–
Cc1cc2cnc(Nc3ccc(N4CCN(CCN(C)C)CC4)cc3)nc2n1-c1cccc(N=S(C)(C)=O)n1 [Example 151, ((6-(2-((4-(4-(2-(dimethylamino)ethyl)piperazin-1-yl)phenyl)amino)-6-methyl-7H-pyrrolo[2,3-d]pyrimidin-7-yl)pyridin-2-yl)imino)dimethyl-λ^6-sulfanone]	0.066 µM	0.0006 µM	–
CCc1cc2cnc(Nc3ccc(N4CCN(C)CC4)cc3)nc2n1-c1cccc(N=S(C)(C)=O)n1 [Example 152]	0.023 µM	0.0002 µM	–
